What was measured:
crabgrass, large = test: Test C pre-/postemergence herbicide test; type: in vivo, Digitaria sanguinalis
In short: (§1)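 Plants grown and held in a greenhouse for 13 to 15 days post-spray, then rated 0–100 by visual comparison with controls. Pre treatments targeted seeds in loam and sand; post treatments targeted 1- to 4-leaf plants in peat-based potting medium.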

johnsongrass = test: Test C pre-/postemergence herbicide test; type: in vivo, Sorghum halepense
In short: as §1

morningglory = test: Test C pre-/postemergence herbicide test; type: in vivo, Ipomoea coccinea
In short: as §1

sedge, umbrella = test: Test B flooded paddy test; type: in vivo, Cyperus difformis; details: 250 g ai/ha, Flood; scale of 0 to 100 where 0 is no effect and 100 is complete control
In short: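 Plants were grown to the 2-leaf stage, then pots were flooded to 3 cm above the soil and compound was applied directly into the paddy water, with that depth held throughout. After 13 to 15 days in a greenhouse, injury was rated visually against untreated controls on a 0 to 100 scale (100 = complete control).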

wheat = test: Test A pre-/postemergence herbicide test; type: in vivo, Triticum aestivum
In short: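 Approximately 10 days after treatment in the greenhouse, plants were compared with untreated controls and given a 0–100 visual injury rating. Applications: preemergence directed soil spray; postemergence on 2–10 cm plants at the one- to two-leaf stage.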

galium = test: Test C pre-/postemergence herbicide test; type: in vivo, Galium aparine
In short: as §1

lambsquarters = test: Test C pre-/postemergence herbicide test; type: in vivo, Chenopodium album
Excerpt: (§2) Seeds of plant species selected from blackgrass (Alopecurus myosuroides), ryegrass, Italian (Italian ryegrass, Lolium multiflorum), wheat (winter wheat, Triticum aestivum), galium (catchweed bedstraw, Galium aparine), corn (Zea mays), crabgrass, large (large crabgrass, Digitaria sanguinalis), foxtail, giant (giant foxtail, Setaria faberii), johnsongrass (Sorghum halepense), lambsquarters (Chenopodium album), morningglory (Ipomoea coccinea), nutsedge, yellow (yellow nutsedge, Cyperus esculentus), pigweed (Amaranthus retroflexus), ragweed (common ragweed, Ambrosia elatior), soybean (Glycine max), barnyardgrass (Echinochloa crus-galli), oilseed rape (Brassica napus), waterhemp (common waterhemp, Amaranthus rudis), kochia (Kochia scoparia), oat, wild (wild oat, Avena fatua), surinam grass (Brachiaria decumbens), foxtail, green (green foxtail, Setaria viridis), goosegrass (Eleusine indica), bromegrass, downy (downy bromegrass, Bromus tectorum), nightshade (eastern black nightshade, Solanum ptycanthum), cocklebur (common cocklebur, Xanthium strumarium), cupgrass, woolly (woolly cupgrass, Eriochloa villosa), bermudagrass (Cynodon dactylon), sunflower, (common oilseed sunflower, Helianthus annuus), Russian thistle (Salsola kali) and velvetleaf (Abutilon theophrasti) were planted into a blend of loam soil and sand and treated preemergence with test chemicals formulated in a non-phytotoxic solvent mixture which included a surfactant. At the same time, plants selected from these crop and weed species and also barley (winter barley, Hordeum vulgare), […]), chickweed (common chickweed, Stellaria media), deadnettle (henbit deadnettle, Lamium amplexicaule), and canarygrass (littleseed canarygrass, Phalaris minor) were planted in pots containing Redi-Earth® planting medium (Scotts Company, 14111 Scottslawn Road, Marysville, Ohio 43041) comprising spaghnum peat moss, vermiculite, wetting agent and starter nutrients and treated with postemergence applications of test chemicals formulated in the same manner. Plants ranged in height from 2 to 18 cm (1- to 4-leaf stage) for postemergence treatments. Treated plants and controls were maintained in a greenhouse for 13 to 15 days, after which time all species were compared to controls and visually evaluated. Plant response ratings, summarized in Table C, are based on a scale of 0 to 100 where 0 is no effect and 100 is complete control. A dash (-) response means no test result.

pigweed = test: Test C pre-/postemergence herbicide test; type: in vivo, Amaranthus retroflexus
In short: as §1

wheat (winter wheat) = test: Test C pre-/postemergence herbicide test; type: in vivo, Triticum aestivum
In short: as §1

blackgrass = test: Test C pre-/postemergence herbicide test; type: in vivo, Alopecurus myosuroides
Excerpt: as §2

waterhemp = test: Test C pre-/postemergence herbicide test; type: in vivo, Amaranthus rudis
Excerpt: as §2

[1] = Preemergence, 31 g ai/ha, scale 0 to 100 (0 no effect, 100 complete control)
[2] = Preemergence, 62 g ai/ha, scale 0 to 100
[3] = Preemergence, 125 g ai/ha, scale 0 to 100 (0 no effect, 100 complete control)
[4] = Preemergence, 250 g ai/ha, scale 0 to 100 (0 no effect, 100 complete control)
[5] = Preemergence, 31 g ai/ha, scale 0 to 100, 0 is no effect and 100 is complete control
[6] = Preemergence, 62 g ai/ha, scale 0 to 100 (0 no effect, 100 complete control)
[7] = Postemergence, 8 g ai/ha, scale 0 to 100 (0 no effect, 100 complete control)
[8] = Postemergence, 16 g ai/ha, scale 0 to 100 (0 no effect, 100 complete control)
[9] = Postemergence, 31 g ai/ha, scale 0 to 100 (0 no effect, 100 complete control)
[10] = Postemergence, 62 g ai/ha, scale 0 (no effect) to 100 (complete control)
[11] = Preemergence, 8 g ai/ha, scale 0 to 100
[12] = Preemergence, 16 g ai/ha, scale 0 to 100

Compound: O=C1NCC(c2cc(F)c(F)c(F)c2)C1C(=O)Nc1ccccc1C(F)(F)F (racemic) [Compound 33]
- Crabgrass, Large plant response rating (crabgrass, large; [1]): 95
- Plant response rating, Crabgrass, Large (crabgrass, large; [2]): 98
- Plant response rating, Crabgrass, Large (crabgrass, large; [3]): 100
- Plant response rating, Crabgrass, Large (crabgrass, large; [4]): 100
- Plant response rating, Johnsongrass (johnsongrass; [2]): 0
- Plant response rating, Johnsongrass (johnsongrass; [3]): 0
- Plant response rating, Morningglory (morningglory; [2]): 0
- Plant response rating, Morningglory (morningglory; [3]): 0
- Plant response rating, Sedge, Umbrella (sedge, umbrella): 0
- Plant response rating, Wheat (wheat; Postemergence, 1000 g ai/ha, 0 to 100 scale (0 no effect, 100 complete control)): 60
- Plant response rating, Wheat (wheat; Preemergence, 1000 g ai/ha, visual rating on 0 to 100 scale (0 no effect, 100 complete control), approx. 10 days): 50
- Galium plant response rating (galium; [1]): 0
- Plant response rating, Galium (galium; [2]): 0
- Plant response rating, Galium (galium; [3]): 60
- Plant response rating, Galium (galium; [4]): 90
- Plant response rating, Lambsquarters (lambsquarters; [2]): 0
- Plant response rating, Lambsquarters (lambsquarters; [3]): 25
- Plant response rating, Pigweed (pigweed; [2]): 0
- Plant response rating, Pigweed (pigweed; [3]): 0
- Plant response rating, Wheat (wheat (winter wheat); [2]): 0
- Plant response rating, Wheat (wheat (winter wheat); [3]): 35
- Blackgrass plant response rating (blackgrass; [1]): 0
- Plant response rating, Blackgrass (blackgrass; [2]): 0
- Plant response rating, Blackgrass (blackgrass; [3]): 0
- Plant response rating, Blackgrass (blackgrass; [4]): 5

Compound: O=C1NCC(c2cccc(C(F)F)c2)C1C(=O)Nc1cccc(F)c1F (racemic) [Compound 211]
- Crabgrass, Large plant response rating (crabgrass, large; [5]): 100
- Crabgrass, Large plant response rating (crabgrass, large; [6]): 95
- Plant response rating, Crabgrass, Large (crabgrass, large; [3]): 95
- Plant response rating (scale of 0 to 100), Crabgrass, Large (crabgrass, large; Preemergence, 250 g ai/ha): 95
- Johnsongrass plant response rating (johnsongrass; [5]): 0
- Johnsongrass plant response rating (johnsongrass; [6]): 0
- Plant response rating, Johnsongrass (johnsongrass; [3]): 30
- Plant response rating (scale of 0 to 100), Johnsongrass (johnsongrass; Preemergence, 250 g ai/ha): 65
- Morningglory plant response rating (morningglory; [5]): 0
- Morningglory plant response rating (morningglory; [6]): 0
- Plant response rating, Morningglory (morningglory; [3]): 0
- Plant response rating (scale of 0 to 100), Morningglory (morningglory; Preemergence, 250 g ai/ha): 0
- Plant response rating, Wheat (wheat; Postemergence, 125 g ai/ha, 0 to 100 scale, 0 is no effect, 100 is complete control): 30
- Wheat plant response rating (0 to 100 scale, 0 is no effect, 100 is complete control) (wheat; Postemergence, 500 g ai/ha): 80
- Galium plant response rating (galium; [6]): 5
- Plant response rating, Galium (galium; [3]): 85
- Plant response rating (scale of 0 to 100), Galium (galium; Preemergence, 250 g ai/ha): 100
- Lambsquarters plant response rating (lambsquarters; [5]): 100
- Lambsquarters plant response rating (lambsquarters; [6]): 85
- Plant response rating, Lambsquarters (lambsquarters; [3]): 100
- Plant response rating (scale of 0 to 100), Lambsquarters (lambsquarters; Preemergence, 250 g ai/ha): 100
- Pigweed plant response rating (pigweed; [6]): 0
- Plant response rating, Pigweed (pigweed; [3]): 0
- Plant response rating (scale of 0 to 100), Pigweed (pigweed; Preemergence, 250 g ai/ha): 70
- Waterhemp plant response rating (waterhemp; [5]): 85
- Waterhemp plant response rating (waterhemp; [6]): 75
- Plant response rating, Waterhemp (waterhemp; [3]): 100
- Plant response rating (scale of 0 to 100), Waterhemp (waterhemp; Preemergence, 250 g ai/ha): 90
- Wheat plant response rating (wheat (winter wheat); [5]): 0
- Wheat plant response rating (wheat (winter wheat); [6]): 0
- Plant response rating, Wheat (wheat (winter wheat); [3]): 30
- Plant response rating (scale of 0 to 100), Wheat (wheat (winter wheat); Preemergence, 250 g ai/ha): 45
- Blackgrass plant response rating (blackgrass; [5]): 0
- Plant response rating, Blackgrass (blackgrass; [2]): 20
- Plant response rating, Blackgrass (blackgrass; [3]): 85
- Plant response rating (scale of 0 to 100), Blackgrass (blackgrass; Preemergence, 250 g ai/ha): 90

Compound: CN1CC(c2ccc(F)cc2)C(C(=O)Nc2cccc(F)c2F)C1=O (stereo not drawn) [Compound 271]
- Plant response rating, Crabgrass, Large (crabgrass, large; [7]): 0
- Plant response rating, Crabgrass, Large (crabgrass, large; [8]): 0
- Plant response rating, Crabgrass, Large (crabgrass, large; [9]): 5
- Plant response rating, Crabgrass, Large (crabgrass, large; [10]): 5
- Crabgrass, Large plant response rating (crabgrass, large; [5]): 95
- Crabgrass, Large plant response rating (crabgrass, large; [6]): 100
- Plant response rating, Crabgrass, Large (crabgrass, large; [11]): 50
- Plant response rating, Crabgrass, Large (crabgrass, large; [12]): 90
- Plant response rating, Johnsongrass (johnsongrass; [7]): 10
- Plant response rating, Johnsongrass (johnsongrass; [8]): 10
- Plant response rating, Johnsongrass (johnsongrass; [9]): 10
- Plant response rating, Johnsongrass (johnsongrass; [10]): 10
- Johnsongrass plant response rating (johnsongrass; [5]): 0
- Johnsongrass plant response rating (johnsongrass; [6]): 10
- Plant response rating, Johnsongrass (johnsongrass; [11]): 0
- Plant response rating, Johnsongrass (johnsongrass; [12]): 0
- Plant response rating, Morningglory (morningglory; [7]): 0
- Plant response rating, Morningglory (morningglory; [8]): 0
- Plant response rating, Morningglory (morningglory; [9]): 10
- Plant response rating, Morningglory (morningglory; [10]): 45
- Morningglory plant response rating (morningglory; [5]): 0
- Morningglory plant response rating (morningglory; [6]): 10
- Plant response rating, Morningglory (morningglory; [11]): 0
- Plant response rating, Morningglory (morningglory; [12]): 0
- Plant response rating, Wheat (wheat; Postemergence, 125 g ai/ha, visual rating on 0 to 100 scale (0 no effect, 100 complete control), approx. 10 days): 0
- Plant response rating, Wheat (wheat; Postemergence, 500 g ai/ha, 0 to 100 scale (0 no effect, 100 complete control)): 80
- Plant response rating, Galium (galium; [7]): 0
- Plant response rating, Galium (galium; [8]): 5
- Plant response rating, Galium (galium; [9]): 30
- Plant response rating, Galium (galium; [10]): 30
- Plant response rating, Lambsquarters (lambsquarters; [7]): 10
- Plant response rating, Lambsquarters (lambsquarters; [8]): 45
- Plant response rating, Lambsquarters (lambsquarters; [9]): 50
- Plant response rating, Lambsquarters (lambsquarters; [10]): 55
- Lambsquarters plant response rating (lambsquarters; [5]): 0
- Lambsquarters plant response rating (lambsquarters; [6]): 20
- Plant response rating, Lambsquarters (lambsquarters; [11]): 0
- Plant response rating, Lambsquarters (lambsquarters; [12]): 0
- Plant response rating, Pigweed (pigweed; [7]): 5
- Plant response rating, Pigweed (pigweed; [8]): 5
- Plant response rating, Pigweed (pigweed; [9]): 10
- Plant response rating, Pigweed (pigweed; [10]): 30
- Pigweed plant response rating (pigweed; [5]): 0
- Pigweed plant response rating (pigweed; [6]): 25
- Plant response rating, Pigweed (pigweed; [12]): 0
- Plant response rating, Waterhemp (waterhemp; [7]): 0
- Plant response rating, Waterhemp (waterhemp; [8]): 0
- Plant response rating, Waterhemp (waterhemp; [9]): 0
- Plant response rating, Waterhemp (waterhemp; [10]): 5
- Waterhemp plant response rating (waterhemp; [5]): 0
- Waterhemp plant response rating (waterhemp; [6]): 35
- Plant response rating, Waterhemp (waterhemp; [11]): 0
- Plant response rating, Waterhemp (waterhemp; [12]): 0
- Plant response rating, Wheat (wheat (winter wheat); [7]): 0
- Plant response rating, Wheat (wheat (winter wheat); [8]): 0
- Plant response rating, Wheat (wheat (winter wheat); [9]): 0
- Plant response rating, Wheat (wheat (winter wheat); [10]): 0
- Wheat plant response rating (wheat (winter wheat); [5]): 0
- Wheat plant response rating (wheat (winter wheat); [6]): 0
- Plant response rating, Wheat (wheat (winter wheat); [11]): 0
- Plant response rating, Wheat (wheat (winter wheat); [12]): 0
- Plant response rating, Blackgrass (blackgrass; [7]): 0
- Plant response rating, Blackgrass (blackgrass; [8]): 0
- Plant response rating, Blackgrass (blackgrass; [9]): 0
- Plant response rating, Blackgrass (blackgrass; [10]): 0
- Blackgrass plant response rating (blackgrass; [5]): 0
- Blackgrass plant response rating (blackgrass; [6]): 50
- Plant response rating, Blackgrass (blackgrass; [11]): 0
